From PMC2788200 (Nutrition Research and Practice, 2008)

Target: T1, 10-formyltetrahydrofolate dehydrogenase (FDH) (Rattus norvegicus, UniProt P28037)
T1 sequence (P28037 1-902): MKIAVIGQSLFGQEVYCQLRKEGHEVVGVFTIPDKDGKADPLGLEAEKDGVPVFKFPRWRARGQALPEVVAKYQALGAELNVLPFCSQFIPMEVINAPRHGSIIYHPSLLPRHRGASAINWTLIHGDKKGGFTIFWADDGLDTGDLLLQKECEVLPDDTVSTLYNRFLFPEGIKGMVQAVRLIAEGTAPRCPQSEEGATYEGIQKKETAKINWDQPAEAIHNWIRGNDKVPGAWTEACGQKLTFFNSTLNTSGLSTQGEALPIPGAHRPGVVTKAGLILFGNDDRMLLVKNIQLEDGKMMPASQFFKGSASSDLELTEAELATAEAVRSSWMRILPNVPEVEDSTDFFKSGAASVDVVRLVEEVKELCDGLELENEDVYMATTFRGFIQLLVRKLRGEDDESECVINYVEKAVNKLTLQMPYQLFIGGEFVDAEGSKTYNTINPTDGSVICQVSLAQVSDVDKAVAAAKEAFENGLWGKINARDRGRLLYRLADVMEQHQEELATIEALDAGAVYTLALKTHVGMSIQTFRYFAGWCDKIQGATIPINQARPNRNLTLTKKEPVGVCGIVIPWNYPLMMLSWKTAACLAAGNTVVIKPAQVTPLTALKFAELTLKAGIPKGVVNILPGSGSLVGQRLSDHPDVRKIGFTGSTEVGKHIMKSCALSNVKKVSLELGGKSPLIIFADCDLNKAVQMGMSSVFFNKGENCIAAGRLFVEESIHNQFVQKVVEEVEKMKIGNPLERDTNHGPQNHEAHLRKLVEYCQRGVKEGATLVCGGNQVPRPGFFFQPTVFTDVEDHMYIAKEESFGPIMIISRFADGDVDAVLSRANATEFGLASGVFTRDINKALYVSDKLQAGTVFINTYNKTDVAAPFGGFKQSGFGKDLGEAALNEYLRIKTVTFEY
Assay: THF formation at […] nm with NADP+, hydrolytic rate subtracted
Format: biochemical

IC50: 4 mM
Compound: CC=O [acetaldehyde]
